From US10829501B2 (BRISTOL-MYERS SQUIBB COMPANY, priority 2016, dated 2020)

Biological target: ROCK2 (Homo sapiens, UniProt O75116)
Test: ROCK2 kinase inhibition assay (LABCHIP 3000 Reader, FITC peptide substrate);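 note: rho kinase reaction read by separating phosphorylated from unphosphorylated peptide on chip, with inhibition of kinase activity computed per concentration across a dose-response series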

Chain of ROCK2 (O75116 whole entry, species assumed): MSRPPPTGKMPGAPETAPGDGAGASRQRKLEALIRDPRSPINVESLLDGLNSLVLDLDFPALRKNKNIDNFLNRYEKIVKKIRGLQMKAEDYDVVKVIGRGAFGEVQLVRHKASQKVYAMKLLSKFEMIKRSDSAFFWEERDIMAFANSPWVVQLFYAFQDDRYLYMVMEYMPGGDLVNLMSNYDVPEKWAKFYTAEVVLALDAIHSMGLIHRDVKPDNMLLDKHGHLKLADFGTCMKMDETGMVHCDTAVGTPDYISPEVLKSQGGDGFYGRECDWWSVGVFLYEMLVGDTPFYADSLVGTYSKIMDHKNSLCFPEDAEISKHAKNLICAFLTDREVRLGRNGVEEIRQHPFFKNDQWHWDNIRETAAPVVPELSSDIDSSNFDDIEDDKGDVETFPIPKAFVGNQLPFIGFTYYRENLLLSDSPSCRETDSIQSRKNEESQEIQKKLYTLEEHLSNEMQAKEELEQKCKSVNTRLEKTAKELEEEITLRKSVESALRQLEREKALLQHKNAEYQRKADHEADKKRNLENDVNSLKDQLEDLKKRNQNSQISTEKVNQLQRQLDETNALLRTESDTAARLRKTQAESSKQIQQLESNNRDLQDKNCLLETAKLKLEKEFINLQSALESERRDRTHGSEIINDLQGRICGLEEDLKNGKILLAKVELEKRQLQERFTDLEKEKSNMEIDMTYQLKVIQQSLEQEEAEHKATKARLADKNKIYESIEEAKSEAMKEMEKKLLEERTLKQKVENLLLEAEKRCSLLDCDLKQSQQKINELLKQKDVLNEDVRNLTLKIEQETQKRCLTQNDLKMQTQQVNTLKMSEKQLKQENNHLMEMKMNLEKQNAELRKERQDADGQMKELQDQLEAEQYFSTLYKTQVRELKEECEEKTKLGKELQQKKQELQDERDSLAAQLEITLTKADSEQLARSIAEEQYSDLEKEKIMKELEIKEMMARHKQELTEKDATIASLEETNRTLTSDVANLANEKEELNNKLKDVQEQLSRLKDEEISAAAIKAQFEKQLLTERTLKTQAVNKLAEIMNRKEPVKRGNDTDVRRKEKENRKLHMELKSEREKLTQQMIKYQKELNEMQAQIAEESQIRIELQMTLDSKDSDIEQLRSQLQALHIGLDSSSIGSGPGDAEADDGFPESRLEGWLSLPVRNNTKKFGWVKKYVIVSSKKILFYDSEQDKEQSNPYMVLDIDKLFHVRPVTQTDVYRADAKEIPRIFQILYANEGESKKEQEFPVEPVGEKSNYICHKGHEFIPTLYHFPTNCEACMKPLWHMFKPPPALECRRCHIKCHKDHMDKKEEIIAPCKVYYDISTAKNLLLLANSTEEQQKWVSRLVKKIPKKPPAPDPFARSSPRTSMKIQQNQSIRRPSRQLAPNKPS

| SMILES | IC50 [nM] |
| --- | --- |
| COc1ccc(NC(=O)N[C@H]2CC3(C2)C[C@H](Oc2ccccc2C(N)=O)C3)cc1 (stereo partly drawn) [Example 40, 2-[((aR)-6-{[(4-methoxyphenyl)carbamoyl]amino}spiro[3.3]heptan-2-yl)oxy]benzamide] | 50 to 250 |
| NC(=O)c1ccccc1O[C@H]1CC2(C[C@H](NC(=O)N3Cc4ccccc4C3)C2)C1 (stereo partly drawn) [Example 41, N-[(aR)-6-(2-carbamoylphenoxy)spiro [3.3]heptan-2-yl]-2,3-dihydro-1H-isoindole-2-carboxamide] | 50 to 250 |
| [H][C@]1(Oc2ncccc2C(N)=O)C[C@@]2(C[C@H](NC(=O)c3cnn4c(C5CC5)c(OCC(C)(C)O)ccc34)C2)C1 (stereo partly drawn) [Example 42, N-((aR)-6-((3-carbamoylpyridin-2-yl)oxy)spiro[3.3]heptan-2-yl)-7-cyclopropyl-6-(2-hydroxy-2-methylpropoxy)pyrazolo[1,5-a]pyridine-3-carboxamide] | < 5 |
| [H][C@]1(Oc2ncccc2C(N)=O)C[C@@]2(C[C@H](NC(=O)c3cnn4c(CCC(F)(F)F)c(OCC(C)(C)O)ccc34)C2)C1 (stereo partly drawn) [Example 43, N-((aR)-6-((3-carbamoylpyridin-2-yl)oxy)spiro[3.3]heptan-2-yl)-6-(2-hydroxy-2-methylpropoxy)-7-(3,3,3-trifluoropropyl)pyrazolo[1,5-a]pyridine-3-carboxamide] | < 5 |
| [H][C@]1(Oc2ccncc2C(N)=O)C[C@@]2(C[C@H](NC(=O)c3cnn4cc(OCC(C)(C)O)ccc34)C2)C1 (stereo partly drawn) [Example 44, N-((aR)-6-((3-carbamoylpyridin-4-yl)oxy)spiro[3.3]heptan-2-yl)-6-(2-hydroxy-2-methylpropoxy)pyrazolo[1,5-a]pyridine-3-carboxamide] | 250 to 2500 |
| [H][C@]1(Oc2cnccc2C(N)=O)C[C@@]2(C[C@H](NC(=O)c3cnn4cc(OCC(C)(C)O)ccc34)C2)C1 (stereo partly drawn) [Example 45, N-((aR)-6-((4-carbamoylpyridin-3-yl)oxy)spiro[3.3]heptan-2-yl)-6-(2-hydroxy-2-methylpropoxy)pyrazolo[1,5-a]pyridine-3-carboxamide] | 50 to 250 |

Other lines, results leading:

| IC50 [nM] | SMILES |
| --- | --- |
| < 5 | [H][C@]1(Oc2ncccc2C(N)=O)C[C@@]2(C[C@H](NC(=O)c3nn(CC(C)(C)O)c4cc(-c5cnn(C)c5)ccc34)C2)C1 (stereo partly drawn) [Example 46, N-((aR)-6-((3-carbamoylpyridin-2-yl)oxy)spiro[3.3]heptan-2-yl)-1-(2-hydroxy-2-methylpropyl)-6-(1-methyl-1H-pyrazol-4-yl)-1H-indazole-3-carboxamide] |
| 5 to 50 | [H][C@]1(Oc2ncccc2C(N)=O)C[C@@]2(C[C@H](NC(=O)c3cnc4c(C5CC5)c(OCC(C)(C)F)ccn34)C2)C1 (stereo partly drawn) [Example 47, N-((aR)-6-((3-carbamoylpyridin-2-yl)oxy)spiro[3.3]heptan-2-yl)-8-cyclopropyl-7-(2-fluoro-2-methylpropoxy)imidazo[1,2-a]pyridine-3-carboxamide] |
| 50 to 250 | CC(C)(O)COc1ccc2c(C(=O)N[C@H]3CC4(C3)C[C@H](Oc3nnccc3C(N)=O)C4)cnn2c1 (stereo partly drawn) [Example 48, N-((aR)-6-((4-carbamoylpyridazin-3-yl)oxy)spiro[3.3]heptan-2-yl)-6-(2-hydroxy-2-methylpropoxy)pyrazolo[1,5-a]pyridine-3-carboxamide] |
| < 5 | [H][C@]1(Oc2ncccc2C(N)=O)C[C@@]2(C[C@H](NC(=O)c3cnn4c(C5CC5)c(OCC(C)(C)F)ccc34)C2)C1 (stereo partly drawn) [Example 49, N-((aR)-6-((3-carbamoylpyridin-2-yl)oxy)spiro[3.3]heptan-2-yl)-7-cyclopropyl-6-(2-fluoro-2-methylpropoxy)pyrazolo[1,5-a]pyridine-3-carboxamide] |
| 5 to 50 | [H][C@]1(Oc2ncccc2C(N)=O)C[C@@]2(C[C@H](NC(=O)c3nn(CC(C)(C)O)c4ccc(-c5cnn(C)c5)cc34)C2)C1 (stereo partly drawn) [Example 50, N-((aR)-6-((3-carbamoylpyridin-2-yl)oxy)spiro[3.3]heptan-2-yl)-1-(2-hydroxy-2-methylpropyl)-5-(1-methyl-1H-pyrazol-4-yl)-1H-indazole-3-carboxamide] |
